Results reported in PubChem BioAssay AID2060495 (Molecular Pharmacology Branch, DTP, NCI, 2025).

System: 521955-158-R2-J5-PDC complex spheroid viability
Assay: Anticancer human tumor 521955-158-R2-J5-PDC patient-derived pancreatic carcinoma cell line growth inhibition [GQUAD]
Settings: for IC50: curve of first compound; for viability, T/C: stronger effect = lower value
Summary of the method: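 Viability of tumor cells grown as complex spheroids with endothelial and stromal cells, exposed to drug combinations. Top concentration at or near clinical Cmax (else 10 microM), diluted in half-log increments.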

[1] = second compound 0.0316 µM, first compound 0.0316 µM
[2] = second compound 0.0316 µM, first compound 0.1 µM
[3] = second compound 0.0316 µM, first compound 0.316 µM
[4] = second compound 0.0316 µM, first compound 1 µM
[5] = second compound 0.0316 µM, first compound 3.16 µM
[6] = second compound 0.0316 µM, first compound 10 µM
[7] = second compound 0.1 µM, first compound 0.0316 µM
[8] = second compound 0.1 µM, first compound 0.1 µM
[9] = second compound 0.1 µM, first compound 0.316 µM
[10] = second compound 0.1 µM, first compound 1 µM
[11] = second compound 0.1 µM, first compound 3.16 µM
[12] = second compound 0.1 µM, first compound 10 µM
[13] = second compound 0.316 µM, first compound 0.0316 µM
[14] = second compound 0.316 µM, first compound 0.1 µM
[15] = second compound 0.316 µM, first compound 0.316 µM
[16] = second compound 0.316 µM, first compound 1 µM
[17] = second compound 0.316 µM, first compound 3.16 µM
[18] = second compound 0.316 µM, first compound 10 µM
[19] = second compound 1 µM, first compound 0.0316 µM
[20] = second compound 1 µM, first compound 0.1 µM
[21] = second compound 1 µM, first compound 0.316 µM
[22] = second compound 1 µM, first compound 1 µM
[23] = second compound 1 µM, first compound 3.16 µM
[24] = second compound 1 µM, first compound 10 µM
[25] = second compound 3.16 µM, first compound 0.0316 µM
[26] = second compound 3.16 µM, first compound 0.1 µM
[27] = second compound 3.16 µM, first compound 0.316 µM
[28] = second compound 3.16 µM, first compound 1 µM
[29] = second compound 3.16 µM, first compound 3.16 µM
[30] = second compound 3.16 µM, first compound 10 µM
[31] = second compound 10 µM, first compound 0.0316 µM
[32] = second compound 10 µM, first compound 0.1 µM
[33] = second compound 10 µM, first compound 0.316 µM
[34] = second compound 10 µM, first compound 1 µM
[35] = second compound 10 µM, first compound 3.16 µM
[36] = second compound 10 µM, first compound 10 µM
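Note: spheroids exposed to agents for one week before reading.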
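Throughout, for viability, T/C: 100% = DMSO vehicle control viability.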

## Cc1cccc(N(C)C(=O)C2C(O)CCN2c2nc(C)cc(C(F)(F)F)c2C#N)c1 (stereo unspecified) + CN(C)c1ccc(Nc2c3ccc(NC(=O)CCN4CCCC4)cc3nc3cc(NC(=O)CCN4CCCC4)ccc23)cc1
Second compound 0.0316 µM
  IC50: > 10000 nM
Second compound 0.1 µM
  IC50: > 10000 nM
Second compound 0.316 µM
  IC50: > 10000 nM
Second compound 1 µM
  IC50: > 10000 nM
Second compound 3.16 µM
  IC50: > 10000 nM
Second compound 10 µM
  IC50: 2590 nM
[1]
  viability, T/C: 110%
[2]
  viability, T/C: 102%
[3]
  viability, T/C: 99.6%
[4]
  viability, T/C: 107%
[5]
  viability, T/C: 103%
[6]
  viability, T/C: 116%
[7]
  viability, T/C: 102%
[8]
  viability, T/C: 91.4%
[9]
  viability, T/C: 99.3%
[10]
  viability, T/C: 96.3%
[11]
  viability, T/C: 125%
[12]
  viability, T/C: 109%
[13]
  viability, T/C: 104%
[14]
  viability, T/C: 95.2%
[15]
  viability, T/C: 103%
[16]
  viability, T/C: 118%
[17]
  viability, T/C: 130%
[18]
  viability, T/C: 99.9%
[19]
  viability, T/C: 84.6%
[20]
  viability, T/C: 99.7%
[21]
  viability, T/C: 96.3%
[22]
  viability, T/C: 86%
[23]
  viability, T/C: 94.4%
[24]
  viability, T/C: 84.2%
[25]
  viability, T/C: 85.8%
[26]
  viability, T/C: 72.1%
[27]
  viability, T/C: 77.4%
[28]
  viability, T/C: 78%
[29]
  viability, T/C: 93.4%
[30]
  viability, T/C: 54.1%
[31]
  viability, T/C: 67.2%
[32]
  viability, T/C: 54.3%
[33]
  viability, T/C: 58%
[34]
  viability, T/C: 58.4%
[35]
  viability, T/C: 48.5%
[36]
  viability, T/C: 18.8%

## CC(C)(O)C1CCC(Nc2ccc3ncc(-c4cccc(C(F)(F)F)c4)n3n2)CC1 (stereo unspecified) + Cc1[nH]c2ccc(F)cc2c1-c1nc2c3cccnc3c3ncccc3c2[nH]1
Second compound 0.0316 µM
  IC50: 2050 nM
Second compound 0.1 µM
  IC50: 1990 nM
Second compound 0.316 µM
  IC50: 2010 nM
Second compound 1 µM
  IC50: 1960 nM
Second compound 3.16 µM
  IC50: 1930 nM
Second compound 10 µM
  IC50: 1890 nM
[1]
  viability, T/C: 93.5%
[2]
  viability, T/C: 109%
[3]
  viability, T/C: 101%
[4]
  viability, T/C: 125%
[5]
  viability, T/C: 15.5%
[6]
  viability, T/C: 10.8%
[7]
  viability, T/C: 102%
[8]
  viability, T/C: 107%
[9]
  viability, T/C: 103%
[10]
  viability, T/C: 117%
[11]
  viability, T/C: 11.3%
[12]
  viability, T/C: 11.7%
[13]
  viability, T/C: 107%
[14]
  viability, T/C: 100%
[15]
  viability, T/C: 102%
[16]
  viability, T/C: 116%
[17]
  viability, T/C: 12.6%
[18]
  viability, T/C: 14.7%
[19]
  viability, T/C: 95.8%
[20]
  viability, T/C: 94.3%
[21]
  viability, T/C: 102%
[22]
  viability, T/C: 121%
[23]
  viability, T/C: 11.7%
[24]
  viability, T/C: 11.9%
[25]
  viability, T/C: 91.2%
[26]
  viability, T/C: 79.3%
[27]
  viability, T/C: 92.9%
[28]
  viability, T/C: 113%
[29]
  viability, T/C: 16.5%
[30]
  viability, T/C: 10.7%
[31]
  viability, T/C: 83.2%
[32]
  viability, T/C: 87.8%
[33]
  viability, T/C: 102%
[34]
  viability, T/C: 126%
[35]
  viability, T/C: 9.89%
[36]
  viability, T/C: 9.4%

## COc1cc(C2c3cc4c(cc3C(OC3OC5COC(C)OC5C(O)C3O)C3COC(=O)C23)OCO4)cc(OC)c1O (stereo unspecified) + Cc1cnc(CNC(=O)c2c(=O)c3ccc(N4CCCN(C)CC4)nc3n3c2sc2ccccc23)cn1
Second compound 0.0316 µM
  IC50: 241 nM
Second compound 0.1 µM
  IC50: 340 nM
Second compound 0.316 µM
  IC50: < 31.6 nM
Second compound 1 µM
  IC50: < 31.6 nM
Second compound 3.16 µM
  IC50: < 31.6 nM
Second compound 10 µM
  IC50: < 31.6 nM
[1]
  viability, T/C: 84.4%
[2]
  viability, T/C: 70.8%
[3]
  viability, T/C: 42.8%
[4]
  viability, T/C: 23.2%
[5]
  viability, T/C: 12.1%
[6]
  viability, T/C: 9.69%
[7]
  viability, T/C: 59.2%
[8]
  viability, T/C: 55.3%
[9]
  viability, T/C: 49.3%
[10]
  viability, T/C: 37.8%
[11]
  viability, T/C: 16%
[12]
  viability, T/C: 11%
[13]
  viability, T/C: 45.2%
[14]
  viability, T/C: 42.2%
[15]
  viability, T/C: 36.5%
[16]
  viability, T/C: 19.8%
[17]
  viability, T/C: 14%
[18]
  viability, T/C: 12.1%
[19]
  viability, T/C: 23.2%
[20]
  viability, T/C: 28.4%
[21]
  viability, T/C: 19.2%
[22]
  viability, T/C: 17.4%
[23]
  viability, T/C: 10.3%
[24]
  viability, T/C: 10.2%
[25]
  viability, T/C: 19.2%
[26]
  viability, T/C: 18%
[27]
  viability, T/C: 19.6%
[28]
  viability, T/C: 17%
[29]
  viability, T/C: 6.27%
[30]
  viability, T/C: 8.61%
[31]
  viability, T/C: 15.6%
[32]
  viability, T/C: 17.8%
[33]
  viability, T/C: 18.8%
[34]
  viability, T/C: 16.7%
[35]
  viability, T/C: 10.2%
[36]
  viability, T/C: 8.93%
